The text below walks through data of paper PMC3640040, “Partial Agonism of Taurine at Gamma-Containing Native and Recombinant GABAA Receptors” (PLoS ONE, 2013).

Each structure is given as a SMILES string.

Experiment [1] deals with T1, α2β3γ2 (δ74–79) (Mus musculus; Homo sapiens, UniProt P22723+P26048+P28472, P22723:A117H/P22723:D113T/P22723:F116L/P22723:I112M/P22723:I114V/P22723:T119S/P22723:Y121R).
T1 construct: gene Gabra2
T1 sequence (P26048 29-451): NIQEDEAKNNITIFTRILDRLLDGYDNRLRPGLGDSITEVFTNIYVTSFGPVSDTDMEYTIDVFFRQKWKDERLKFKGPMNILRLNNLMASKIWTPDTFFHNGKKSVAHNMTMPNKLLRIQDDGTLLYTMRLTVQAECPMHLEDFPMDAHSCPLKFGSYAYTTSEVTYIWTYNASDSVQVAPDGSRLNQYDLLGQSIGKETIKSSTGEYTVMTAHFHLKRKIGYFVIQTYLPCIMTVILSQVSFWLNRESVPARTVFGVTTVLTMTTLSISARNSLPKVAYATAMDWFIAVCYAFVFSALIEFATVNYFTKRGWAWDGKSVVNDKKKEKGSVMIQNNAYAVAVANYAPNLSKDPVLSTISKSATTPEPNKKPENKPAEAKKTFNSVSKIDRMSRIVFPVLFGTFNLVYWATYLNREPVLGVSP
T1 sequence (P28472 26-473): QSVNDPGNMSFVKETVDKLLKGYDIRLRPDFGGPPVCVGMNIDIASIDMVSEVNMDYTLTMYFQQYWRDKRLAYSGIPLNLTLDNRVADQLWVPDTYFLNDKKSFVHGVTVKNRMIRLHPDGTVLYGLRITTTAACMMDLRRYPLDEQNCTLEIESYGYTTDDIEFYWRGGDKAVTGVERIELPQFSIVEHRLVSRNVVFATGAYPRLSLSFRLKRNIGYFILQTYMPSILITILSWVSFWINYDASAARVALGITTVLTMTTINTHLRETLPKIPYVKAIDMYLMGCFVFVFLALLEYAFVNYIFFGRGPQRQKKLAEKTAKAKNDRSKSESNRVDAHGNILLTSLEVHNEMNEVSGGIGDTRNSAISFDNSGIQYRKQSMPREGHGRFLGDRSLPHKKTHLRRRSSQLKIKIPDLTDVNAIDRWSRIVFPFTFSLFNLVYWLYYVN
T1 sequence (P22723 39-474 I112M/D113T/I114V/F116L/A117H/T119S/Y121R): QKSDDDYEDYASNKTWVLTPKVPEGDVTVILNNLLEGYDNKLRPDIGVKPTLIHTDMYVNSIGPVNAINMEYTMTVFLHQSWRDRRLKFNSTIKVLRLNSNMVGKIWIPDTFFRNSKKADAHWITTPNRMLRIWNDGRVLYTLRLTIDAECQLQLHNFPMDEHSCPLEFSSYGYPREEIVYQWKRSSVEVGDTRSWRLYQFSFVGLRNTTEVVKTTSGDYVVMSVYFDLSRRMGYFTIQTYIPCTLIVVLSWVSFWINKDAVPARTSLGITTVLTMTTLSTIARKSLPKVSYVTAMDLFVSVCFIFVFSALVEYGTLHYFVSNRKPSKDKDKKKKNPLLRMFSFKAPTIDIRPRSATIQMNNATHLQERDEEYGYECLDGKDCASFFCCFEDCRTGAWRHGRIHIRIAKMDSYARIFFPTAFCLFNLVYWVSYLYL
Kind of experiment: cell-based. The conditions noted are these: read-out: % of control GABA current at 1 μM.

In experiment [2] the target is T2, α2β3γ2 (Mus musculus; Homo sapiens, UniProt P22723+P26048+P28472).
T2 construct: gene Gabra2; ternary GABA-A receptor, mouse alpha2 + human beta3 + mouse gamma2L; Xenopus oocytes, cRNA ratio 10:1:10; agonist site alpha/beta, zolpidem site alpha/gamma
T2 sequence (P22723 39-474, one chain of several): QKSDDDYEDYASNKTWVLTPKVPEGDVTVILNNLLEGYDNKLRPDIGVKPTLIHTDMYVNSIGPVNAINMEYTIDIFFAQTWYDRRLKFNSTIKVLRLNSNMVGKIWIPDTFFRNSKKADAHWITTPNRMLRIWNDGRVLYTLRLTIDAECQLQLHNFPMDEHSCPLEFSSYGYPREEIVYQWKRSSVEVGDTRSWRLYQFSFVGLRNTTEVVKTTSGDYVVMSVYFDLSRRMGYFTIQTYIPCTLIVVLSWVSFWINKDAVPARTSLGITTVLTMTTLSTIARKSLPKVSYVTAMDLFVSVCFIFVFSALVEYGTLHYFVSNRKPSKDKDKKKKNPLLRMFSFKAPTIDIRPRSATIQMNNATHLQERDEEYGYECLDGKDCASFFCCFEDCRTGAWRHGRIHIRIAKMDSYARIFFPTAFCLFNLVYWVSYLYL
As to the kind of experiment: two-electrode voltage clamp, Xenopus oocytes. The conditions noted are these: read-out: Taurine / EC50. Format: cell-based. (In general: In two-electrode clamp one electrode senses voltage and the other passes current.)

Experiment [3] addresses T3, α2β1δ (Rattus norvegicus; Mus musculus; Homo sapiens, UniProt P15431+P26048).
T3 construct: gene Gabra2; ternary GABA-A receptor, mouse alpha2 + rat beta1 + human delta; Xenopus oocytes, cRNA ratio 10:1:10; with Gamma-aminobutyric acid receptor subunit delta
Kind of experiment: two-electrode voltage clamp, Xenopus oocytes. It is filed as cell-based. Particulars: read-out: Taurine / EC50.

The target in experiment [4] is T4, α2β1γ2 (δ74–79) (Mus musculus; Rattus norvegicus, UniProt P15431+P26048).
T4 construct: gene Gabra2; mouse alpha2 + rat beta1 + mouse gamma2L with IDIFFA (74-79) replaced by delta motif MTVFLH; printed primers also encode T81S and Y83R, text names 74-79 only; Xenopus oocytes; with Gamma-aminobutyric acid receptor subunit gamma-2
T4 sequence (P15431 26-474, one chain of several): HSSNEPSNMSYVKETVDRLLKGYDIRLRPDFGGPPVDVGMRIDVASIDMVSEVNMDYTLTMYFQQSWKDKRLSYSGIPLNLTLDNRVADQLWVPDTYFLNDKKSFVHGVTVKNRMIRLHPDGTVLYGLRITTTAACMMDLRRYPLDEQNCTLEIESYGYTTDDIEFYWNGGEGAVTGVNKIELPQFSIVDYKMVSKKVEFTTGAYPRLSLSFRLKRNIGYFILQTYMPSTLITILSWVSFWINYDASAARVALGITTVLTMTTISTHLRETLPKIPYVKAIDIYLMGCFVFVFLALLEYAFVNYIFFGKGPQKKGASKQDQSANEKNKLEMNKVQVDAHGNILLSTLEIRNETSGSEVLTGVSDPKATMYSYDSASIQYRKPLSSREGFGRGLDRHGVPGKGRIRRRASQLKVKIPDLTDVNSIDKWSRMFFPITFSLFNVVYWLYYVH
As to the kind of experiment: two-electrode voltage clamp, Xenopus oocytes. Format: cell-based. Particulars: read-out: Taurine / EC50. The source says:
two-electrode voltage clamp, Xenopus oocytes on α2β1γ2 (δ74–79)

Experiment [5] concerns the target T5, α2β1 (Mus musculus; Rattus norvegicus, UniProt P15431+P26048).
T5 construct: gene Gabra2; binary GABA-A receptor, mouse alpha2 + rat beta1; Xenopus oocytes
Kind of experiment: two-electrode voltage clamp, Xenopus oocytes. It is filed as cell-based. The conditions noted are these: read-out: Taurine / EC50. The source says:
two-electrode voltage clamp, Xenopus oocytes on α2β1

Experiment [6] concerns the target T6, α2β3 (Mus musculus; Homo sapiens, UniProt P26048+P28472).
T6 construct: gene Gabra2; binary GABA-A receptor, mouse alpha2 + human beta3; Xenopus oocytes
T6 sequence (P26048 29-451): T1 sequence (P26048 29-451)
T6 sequence (P28472 26-473): T1 sequence (P28472 26-473)
Kind of experiment: two-electrode voltage clamp, Xenopus oocytes. Format: cell-based. Particulars: read-out: Taurine / EC50.

For experiment [7], the target named is T7, α2β3δ (Mus musculus; Homo sapiens, UniProt P26048+P28472).
T7 construct: gene Gabra2; ternary GABA-A receptor, mouse alpha2 + human beta3 + human delta; Xenopus oocytes, cRNA ratio 10:1:10; with Gamma-aminobutyric acid receptor subunit delta
T7 sequence (P26048 29-451): T1 sequence (P26048 29-451)
T7 sequence (P28472 26-473): T1 sequence (P28472 26-473)
T7 sequence (O14764 25-452 partner): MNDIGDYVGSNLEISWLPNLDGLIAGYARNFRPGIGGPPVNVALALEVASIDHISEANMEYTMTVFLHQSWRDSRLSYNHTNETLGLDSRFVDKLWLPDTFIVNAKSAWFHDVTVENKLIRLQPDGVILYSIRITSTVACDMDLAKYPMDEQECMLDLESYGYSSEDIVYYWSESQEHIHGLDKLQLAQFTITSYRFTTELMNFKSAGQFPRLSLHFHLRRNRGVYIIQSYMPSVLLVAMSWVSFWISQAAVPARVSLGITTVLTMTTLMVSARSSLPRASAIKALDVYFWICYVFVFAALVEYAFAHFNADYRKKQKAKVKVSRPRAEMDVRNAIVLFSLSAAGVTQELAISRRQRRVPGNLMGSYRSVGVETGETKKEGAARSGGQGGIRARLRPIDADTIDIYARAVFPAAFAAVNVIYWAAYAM
As to the kind of experiment: two-electrode voltage clamp, Xenopus oocytes. It is filed as cell-based. The conditions noted are these: read-out: Taurine / EC50.

Experiment [8] has as its target T8, α2β1γ2 (Rattus norvegicus; Mus musculus, UniProt P15431+P26048).
T8 construct: gene Gabra2; ternary GABA-A receptor, mouse alpha2 + rat beta1 + mouse gamma2L; Xenopus oocytes, cRNA ratio 10:1:10; with Gamma-aminobutyric acid receptor subunit gamma-2
As to the kind of experiment: two-electrode voltage clamp, Xenopus oocytes. Format: cell-based. The conditions noted are these: read-out: Taurine / EC50.

T5 sequence (P15431 26-474, one chain of several): as the sequence (P15431 26-474, one chain of several) above
T3 sequence (P15431 26-474, one chain of several): as the sequence (P15431 26-474, one chain of several) above
T8 sequence (P26048 29-451 F77I): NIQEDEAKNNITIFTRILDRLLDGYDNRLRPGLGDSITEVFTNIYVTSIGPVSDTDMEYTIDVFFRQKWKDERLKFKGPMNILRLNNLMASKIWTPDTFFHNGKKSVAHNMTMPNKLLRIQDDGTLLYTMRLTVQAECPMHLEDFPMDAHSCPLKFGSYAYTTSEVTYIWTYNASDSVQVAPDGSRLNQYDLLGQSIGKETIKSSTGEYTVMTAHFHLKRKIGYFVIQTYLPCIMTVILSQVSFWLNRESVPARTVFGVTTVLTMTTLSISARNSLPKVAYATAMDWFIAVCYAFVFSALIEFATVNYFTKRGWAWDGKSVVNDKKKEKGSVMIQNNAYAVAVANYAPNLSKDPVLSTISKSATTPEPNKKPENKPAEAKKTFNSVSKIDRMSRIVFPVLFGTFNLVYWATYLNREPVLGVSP
T8 sequence (P15431 26-474): as the sequence (P15431 26-474, one chain of several) above
T8 sequence (P22723 39-474 partner): as the sequence (P22723 39-474, one chain of several) above

For `Cc1ccc(-c2nc3ccc(C)cn3c2CC(=O)N(C)C)cc1` [zolpidem], in experiment [1], the remaining activity at 1 µM came out at 97 ± 7%.

In the case of `NCCS(=O)(=O)O` [taurine, 2-aminoethane sulfonic acid], the EC50 in experiment [2] amounted to 51.2 ± 19.8 mM; in experiment [3], 67.8 ± 15.9 mM; in experiment [4] it was 40.5 ± 6.9 mM; in experiment [5], 81.8 ± 24.9 mM; in experiment [6], 24.5 ± 11.2 mM; in experiment [7], 35.4 ± 2 mM. The EC50 in experiment [8] came to 76.1 ± 3.9 mM.
